According to PubChem BioAssay (NCI):
Several values for one entry are separate records, joined by “and”; a condition that tells them apart may be missing. Identical values can stand only once.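 How tested: cells in 96-well plates exposed to compound for 48 hours at five concentrations. GI50 is the concentration that inhibits growth by half. TGI: total growth inhibition.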

Tests used:
Experiment in all cases: DTP human tumour cell line panel, 48 h
HCC-2998 colon = system: HCC-2998 colon
NCI-H226 lung = system: NCI-H226 lung
UACC-257 melanoma = system: UACC-257 melanoma
SK-MEL-2 melanoma = system: SK-MEL-2 melanoma
EKVX NSCLC = system: EKVX NSCLC
SF-539 CNS = system: SF-539 CNS
ACHN renal = system: ACHN renal
HCT-116 colon = system: HCT-116 colon
NCI-H522 lung = system: NCI-H522 lung
SK-MEL-28 melanoma = system: SK-MEL-28 melanoma
NCI/ADR-RES ovarian = system: NCI/ADR-RES ovarian
PC-3 prostate = system: PC-3 prostate
MDA-MB-435 = system: MDA-MB-435
BT-549 breast = system: BT-549 breast

Row | SMILES | TGI (HCC-2998 colon) [µM] | TGI (NCI-H226 lung) [µM] | TGI (UACC-257 melanoma) | TGI (SK-MEL-2 melanoma) | TGI (EKVX NSCLC) | TGI (SF-539 CNS) | TGI (ACHN renal) [µM] | TGI (HCT-116 colon) | TGI (NCI-H522 lung) [µM] | TGI (SK-MEL-28 melanoma) | TGI (NCI/ADR-RES ovarian) [µM] | TGI (PC-3 prostate) [µM] | TGI (MDA-MB-435) [µM] | TGI (BT-549 breast) [µM] | GI50 (HCC-2998 colon) [µM] | GI50 (EKVX NSCLC) | GI50 (HCT-116 colon) [µM] | GI50 (NCI-H522 lung) | GI50 (SK-MEL-28 melanoma) [µM]
1 | CC1=CC(=C(c2ccc(N)c(C)c2)c2ccc(N)c(C)c2)C=CC1=N | 14.4 | 33.6 | 15.7 µM | 7.48 µM | 45.8 µM | 14.5 µM | 69.2 | 13.3 µM | 13.6 | 19.2 µM | – | – | – | – | – | – | – | – | –
2 | CC[N+](C)(C)c1ccc(C(=C2C=CC(=[N+](C)C)C=C2)c2ccc(N(C)C)cc2)cc1 | 32.3 | 52.8 | 28.6 µM | 56.8 µM | > 100 µM | 50.4 µM | 62.1 | 19.5 µM | 9.37 | 52.4 µM | – | – | – | – | – | – | – | – | –
3 | N#Cc1c(-c2cccc(Br)c2)cc(-c2ccc(Cl)cc2)nc1N | 34 | 38.1 | 38.2 µM | 31.5 µM | 56.7 µM | 39.5 µM | 51.8 | 34.8 µM | 30.4 | – | 55.6 | 71.3 | 38.2 | 99.3 | – | – | – | – | –
4 | COc1cc2c(cc1C)NC(=O)/C2=C\c1cccnc1 | 21.6 | – | 28.4 µM | 76.1 µM | 52.9 µM | 51.7 µM | > 100 | > 100 µM | 70.2 | > 100 µM | 36.8 | > 100 | 50.1 | 96.9 | – | – | – | – | –
5 | COc1cccc2c1C(=O)c1c(O)c3c(c(O)c1C2=O)CC(O)(C(C)=O)CC3OC1CC([N+](C)(C)C)C(O)C(C)O1 (configuration not stated) | > 100 | > 100 | > 100 µM | > 100 µM | > 100 µM | > 100 µM | > 100 | > 100 µM | > 100 | > 100 µM | – | – | – | – | – | – | – | – | –
6 | COC1C(=[N+]=[N-])C(=O)NC(=O)N1C1OC(COC(c2ccccc2)(c2ccccc2)c2ccccc2)C(O)C1O (configuration not stated) | 32.8 | 32.1 | – | 38.4 µM | 35.9 µM | 35.6 µM | 38.3 | 34.9 µM | 31 | 31.2 µM | – | – | – | – | – | – | – | – | –
7 | OC12c3ccccc3C1CCCCCCCCCC21OCCCO1 (configuration not stated) | > 100 | > 100 | > 100 µM | – | > 100 µM | > 100 µM | – | > 100 µM | > 100 | > 100 µM | – | – | – | – | – | – | – | – | –
8 | CCOC(=O)c1csc(NC(=O)CN2CCCCC2)n1 | > 100 | – | > 100 µM | > 100 µM | > 100 µM | > 100 µM | > 100 | – | – | > 100 µM | > 100 | > 100 | > 100 | – | – | – | – | – | –
9 | COC(=O)C1C(O)C(C)C(O)C(C)/C=C\C=C(C)C(=O)Nc2c(C)c(OC(C)=O)c3c(c2O)C(=O)C(C)=C2OCOC(=C23)C(C)=CC(C)(O)C(O)C(C)C1O (configuration not stated) | > 100 | > 100 | 55.7 µM and 62.5 µM | 36.2 µM and > 100 µM | 73.7 µM and > 100 µM | 74.3 µM and > 100 µM | > 100 | 49.6 µM and > 100 µM | > 100 | 44.7 µM and > 100 µM | > 100 | > 100 | > 100 | > 100 | > 100 | 48 µM and > 100 µM | 20.3 | 23.4 µM and 74.2 µM | 21.7
10 | O=S(=O)(O)c1cccc2ccc(O)c(N=Nc3ccc(S(=O)(=O)c4ccc(N=Nc5c(O)ccc6cccc(S(=O)(=O)O)c56)cc4)cc3)c12 | – | > 100 | > 100 µM | > 100 µM | > 100 µM | – | > 100 | > 100 µM | > 100 | > 100 µM | > 100 | > 100 | > 100 | > 100 | – | – | – | – | –
11 | O=S(=O)(O)c1ccc(N=Nc2c(O)ccc3ccccc23)cc1 | > 100 | > 100 | > 100 µM | > 100 µM | > 100 µM | > 100 µM | > 100 | > 100 µM | > 100 | > 100 µM | > 100 | > 100 | > 100 | > 100 | – | – | – | – | –
12 | O=S(=O)(O)c1cc(S(=O)(=O)O)c2c(N=Nc3ccccc3)c(O)ccc2c1 | – | > 100 | > 100 µM | > 100 µM | – | – | – | > 100 µM | – | > 100 µM | > 100 | > 100 | > 100 | > 100 | – | – | – | – | –
